{"source": "patent US20140314857A1", "about": "“FORMULATIONS FOR ENHANCED BIOAVAILABILITY OF ZANAMIVIR” (priority 2012, published 2014)", "test": "Intraduodenal bioavailability of zanamivir from glycerol and PBS formulations, enhancer pre-dose (Example 6)", "conditions": "male, Sprague-Dawley, rat, in vivo, ID 1.5 mg/animal; for concentration at 0.25 hr / concentration at 0.5 hr / concentration at 0.83 hr / concentration at 1 hr / concentration at 1.5 hr / concentration at 2 hr: 1.5 mg/animal, Plasma concentration", "description": "Male Sprague-Dawley rats (Hilltop Labs), 3 animals per treatment group, 250-350 grams in weight, were fitted with a jugular vein cannula (JVC). Animals intended for intraduodenal dosing were also fitted with one or more intraduodenal cannula (IDC) and those intended for intravenous dosing were fitted with a second JVC. Food was withheld from the animals for a minimum of twelve hours prior to test article administration and was returned approximately four hours post-dose. Water was supplied ad libitum.\nIntraduodenal doses composed of 1.5 mg of zanamivir and varying amounts of an enhancer (glycerol or Capmul MCM L8) were injected directly into the duodenum via the IDC. Intravenous dosing was conducted by the injection of 1.5 mg of zanamivir in 200 μL of PBS through a JVC. For some experiments, the absorption enhancer was administered intraduodenally 2 hr prior to administering 1.5 mg of zanamivir in PBS through a second IDC. Each intraduodenal dose was followed with the introduction of a small air bubble (˜10 μL) in the cannula followed by a flush of 125 μL of PBS to ensure the dose was given in full. The volume of PBS used for cannula flush was consistent across the treatment groups. The cannula was tied to prevent the PBS remaining in the cannula from entering the duodenum.\nBlood samples collected via the JVC, approximately 400 μL each, were obtained at 2 min, 5 min, 15 min, 30 min, 60 min, 90 min, and 120 min, with sodium heparin used as an anti-coagulant. Each sample was placed into a chilled tube containing the anticoagulant and kept on ice until centrifugation at 4° C., 3,000×g, for 5 min. The plasma supernatants were stored at −70° C. until LC-MS analysis.\nDosing solution samples were assayed by LC-MS/MS using electrospray ionization. The chromatographic system consisted of Perkin Elmer series 200 micropumps and autosampler equipped with a Waters Atlantic® HILIC Silica 3 μM, 2.1×50 mm column. The mass spectrometer was a PE Sciex API 4000 with electrospray interface in multiple reaction monitoring mode. […] Stock solutions (1 mg/mL zanamivir) were prepared in water. Standards (eight concentrations) were prepared in the appropriate matched matrix (HBSSg or Sprague-Dawley rat plasma containing sodium heparin) and diluted 50-fold with methanol. Experimental samples were treated identically.\nStandards and samples were prepared in Sprague Dawley rat plasma containing sodium heparin as an anticoagulant. An eight-point calibration curve was prepared at concentrations of 1000, 750, 500, 250, 100, 50, 25, and 10 ng/mL by serial dilution. Standard samples were treated identically to the study samples.\nPlasma samples were extracted by protein precipitation in methanol.\nIn this example, the bioavailability of Zanamivir was evaluated after intraduodenal doses in male Sprague-Dawley rats. The test compound was dosed at 1.5 mg/animal through intraduodenal routes from glycerol and PBS formulations. Plasma levels were determined by LC-MS/MS analysis. Pharmacokinetic parameters were estimated by a non-compartmental model using WinNonlin v5.2.1 software.", "key": {"[1]": {"conditions": "50 µL PBS, 50 µL blank Capmul MCM L8 -2 hr, individual rats"}, "[2]": {"conditions": "50 µL PBS, 50 µL blank Capmul MCM L8 -2 hr, mean"}, "[3]": {"conditions": "50 µL PBS, 150 µL blank glycerol -2 hr, mean"}, "[4]": {"conditions": "50 µL PBS, 150 µL blank glycerol -2 hr, individual rats"}, "[5]": {"conditions": "100 µL Glycerol, individual rats"}, "[6]": {"conditions": "150 µL Glycerol, individual rats"}}}
{"compound": "CC(=O)NC1C(NC(=N)N)C=C(C(=O)O)OC1C(O)C(O)CO", "note": "(centres unmarked) [Zanamivir, 5-acetamido-4-guanidino-6-(1,2,3-trihydroxypropyl)-5,6-dihydro-4H-pyran-2-carboxylic acid]", "values": [{"measurement": "Tmax", "setting": "1.5 mg, tmax, 100 µL Glycerol, mean", "value": 43.2, "unit": "min"}, {"measurement": "concentration at 0.25 hr", "setting": "[1]", "value": 0.0333, "unit": "µg/mL"}, {"measurement": "concentration at 0.25 hr", "setting": "[2]", "value": 0.0295, "unit": "µg/mL"}, {"measurement": "concentration at 0.5 hr", "setting": "[1]", "value": 0.038, "unit": "µg/mL"}, {"measurement": "concentration at 0.5 hr", "setting": "[2]", "value": 0.0385, "unit": "µg/mL"}, {"measurement": "concentration at 0.83 hr", "setting": "[2]", "value": 0.0108, "unit": "µg/mL"}, {"measurement": "concentration at 1 hr", "setting": "[1]", "value": 0.033, "unit": "µg/mL"}, {"measurement": "concentration at 1 hr", "setting": "[2]", "value": 0.0327, "unit": "µg/mL"}, {"measurement": "concentration at 1.5 hr", "setting": "[2]", "value": 0.0387, "unit": "µg/mL"}, {"measurement": "concentration at 2 hr", "setting": "[2]", "value": 0.0338, "unit": "µg/mL"}, {"measurement": "concentration at 0.25 hr", "setting": "[3]", "value": 0.0518, "unit": "µg/mL"}, {"measurement": "concentration at 0.5 hr", "setting": "[4]", "value": 0.0502, "unit": "µg/mL"}, {"measurement": "concentration at 0.5 hr", "setting": "[3]", "value": 0.0542, "unit": "µg/mL"}, {"measurement": "concentration at 0.83 hr", "setting": "[3]", "value": 0.0244, "unit": "µg/mL"}, {"measurement": "concentration at 1 hr", "setting": "[4]", "value": 0.0364, "unit": "µg/mL"}, {"measurement": "concentration at 1 hr", "setting": "[3]", "value": 0.0382, "unit": "µg/mL"}, {"measurement": "concentration at 1.5 hr", "setting": "[4]", "value": 0.0401, "unit": "µg/mL"}, {"measurement": "concentration at 1.5 hr", "setting": "[3]", "value": 0.0401, "unit": "µg/mL"}, {"measurement": "concentration at 2 hr", "setting": "50 µL PBS, 150 µL blank glycerol -2 hr, individual rats, BLOQ = below 10 ng/mL", "value": 0.0534, "unit": "µg/mL"}, {"measurement": "concentration at 2 hr", "setting": "[3]", "value": 0.0541, "unit": "µg/mL"}, {"measurement": "concentration at 0.25 hr", "setting": "[5]", "value": 0.052, "unit": "µg/mL"}, {"measurement": "concentration at 0.25 hr", "setting": "100 µL Glycerol, mean", "value": 0.0564, "unit": "µg/mL"}, {"measurement": "concentration at 0.5 hr", "setting": "[5]", "value": 0.0514, "unit": "µg/mL"}, {"measurement": "concentration at 0.5 hr", "setting": "100 µL Glycerol, mean", "value": 0.0487, "unit": "µg/mL"}, {"measurement": "concentration at 0.83 hr", "setting": "100 µL Glycerol, mean", "value": 0.0571, "unit": "µg/mL"}, {"measurement": "concentration at 1 hr", "setting": "[5]", "value": 0.0385, "unit": "µg/mL"}, {"measurement": "concentration at 1 hr", "setting": "100 µL Glycerol, mean", "value": 0.0444, "unit": "µg/mL"}, {"measurement": "concentration at 1.5 hr", "setting": "100 µL Glycerol, mean", "value": 0.0469, "unit": "µg/mL"}, {"measurement": "concentration at 2 hr", "setting": "100 µL Glycerol, mean", "value": 0.0542, "unit": "µg/mL"}, {"measurement": "concentration at 0.25 hr", "setting": "[6]", "value": 0.109, "unit": "µg/mL"}, {"measurement": "concentration at 0.25 hr", "setting": "150 µL Glycerol, mean", "value": 0.0877, "unit": "µg/mL"}, {"measurement": "concentration at 0.5 hr", "setting": "150 µL Glycerol, mean", "value": 0.0692, "unit": "µg/mL"}, {"measurement": "concentration at 0.83 hr", "setting": "[6]", "value": 0.139, "unit": "µg/mL"}, {"measurement": "concentration at 0.83 hr", "setting": "150 µL Glycerol, mean", "value": 0.107, "unit": "µg/mL"}, {"measurement": "concentration at 1 hr", "setting": "[6]", "value": 0.0525, "unit": "µg/mL"}, {"measurement": "concentration at 1 hr", "setting": "150 µL Glycerol, mean", "value": 0.0499, "unit": "µg/mL"}, {"measurement": "concentration at 1.5 hr", "setting": "150 µL Glycerol, mean", "value": 0.0366, "unit": "µg/mL"}, {"measurement": "concentration at 2 hr", "setting": "150 µL Glycerol, mean", "value": 0.0293, "unit": "µg/mL"}]}
